Reference: patent US8389573B2, “Glycyrrhetinic acid derivatives” (Wellington Laboratories Inc., priority 2006, dated 2013)

Assays:
HT-29 cells = assay: Western blot analysis in HT-29 cells; assay type: cell-based, human
Description: SW-480 and HT-29 (3×10^5) cells were seeded in six-well plates in DMEM/Ham's F-12 media containing 2.5% charcoal-stripped FBS for 24 h and then treated with either the vehicle (DMSO) or the indicated compounds. Whole-cell lysates were obtained using high-salt buffer [50 mM HEPES, 500 mM NaCl, 1.5 mM MgCl2, 1 mM EGTA, 10% glycerol, and 1% Triton X-100, pH 7.5, and 5 μl/ml Protease Inhibitor Cocktail (Sigma-Aldrich)]. Protein samples were incubated at 100° C. for 2 min, separated on 10% SDS-PAGE at 120 V for 3 to 4 h in 1× running buffer (25 mM Tris-base, 192 mM glycine, and 0.1% SDS, pH 8.3), and transferred to polyvinylidene difluoride membrane (PVDF; Bio-Rad, Hercules, Calif.) at […] for 16 h at 4° C. in 1× transfer buffer (48 mM Tris-HCl, 39 mM glycine, and 0.025% SDS). The PVDF membrane was blocked in 5% TBST-Blotto (10 mM Tris-HCl, 150 mM NaCl, pH 8.0, 0.05% Triton X-100, and 5% nonfat dry milk) with gentle shaking for 30 min and was incubated in fresh 5% TBST-Blotto with 1:1000 (for caveolin-1, p27, p21, cyclin D1, Grp78), 1:500 (for KLF4, NAG-1), 1:250 (for PARP), and 1:5000 (for β-actin) primary antibody overnight with gentle shaking at 4° C. After washing with TBST for 10 min, the PVDF membrane was incubated with secondary antibody (1:5000) in 5% TBST-Blotto for 90 min. The membrane was washed with TBST for 10 min, incubated with 10 ml of chemiluminescence substrate (PerkinElmer) for 1.0 min, and exposed to Kodak X-OMAT AR autoradiography film (Eastman Kodak, Rochester, N.Y.).

PPARγ [1] = target: T1, PPARγ (Homo sapiens, UniProt P37231); assay: PPRE3-Luc transfection and luciferase assay in SW480 cells; assay type: cell-based
T1 construct: endogenous in cells; host or cells: SW480 colon cancer cells
T1 sequence (P37231 1-505): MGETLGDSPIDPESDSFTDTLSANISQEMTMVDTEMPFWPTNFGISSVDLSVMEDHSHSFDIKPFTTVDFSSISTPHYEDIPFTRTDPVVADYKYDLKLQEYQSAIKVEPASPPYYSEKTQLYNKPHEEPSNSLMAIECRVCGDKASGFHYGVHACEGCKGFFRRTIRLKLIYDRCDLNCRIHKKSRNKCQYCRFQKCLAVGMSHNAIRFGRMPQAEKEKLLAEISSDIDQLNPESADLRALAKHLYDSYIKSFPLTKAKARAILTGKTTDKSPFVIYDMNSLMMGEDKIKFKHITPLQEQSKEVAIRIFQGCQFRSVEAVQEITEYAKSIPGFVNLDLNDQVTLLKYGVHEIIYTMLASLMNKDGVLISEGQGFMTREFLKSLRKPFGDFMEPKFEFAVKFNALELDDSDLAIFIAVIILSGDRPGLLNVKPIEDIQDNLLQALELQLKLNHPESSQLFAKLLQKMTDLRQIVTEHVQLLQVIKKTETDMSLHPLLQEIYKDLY
Description: (§1) The Gal4 reporter containing 5× Gal4 response elements (pGal4) was kindly provided by Dr. Marty Mayo (University of North Carolina, Chapel Hill, N.C.). Gal4 DBD-PPARγ construct (gPPARγ) was a gift of Dr. Jennifer L. Oberfield (GlaxoSmithKline Research and Development, Research Triangle Park, N.C.). PPRE3-luc construct contains three tandem PPREs with a minimal TATA sequence in pGL2.
(§2) Colon Cancer cell lines SW480 and HT29 (1×10^5 cells/well) were plated in 12-well plates in DMEM/Ham's F-12 media supplemented with 2.5% charcoal-stripped FBS. After 16 h, various amounts of DNA [i.e., Gal4Luc (0.4 μg), β-Gal (0.04 μg), Gal4PPAR and PPRE3-Luc (0.04 μg)] were transfected using LipofectAMINE™ reagent (Invitrogen) following the manufacturer's protocol. Five hours after transfection, the transfection mix was replaced with complete media containing either vehicle (DMSO) or the indicated ligand for 20 to 22 h. Cells were then lysed with 100 μl of 1× reporter lysis buffer, and 30 μl of cell extract was used for luciferase and […] assays. A LumiCount™ luminometer (PerkinElmer Life and Analytical Sciences) was used to quantitate luciferase and β-Gal activities, and the luciferase activities were normalized to β-Gal activity. Results are expressed as means±S.E. for at least three replicate determinations for each treatment group

PPARγ [2] = assay: PPARγ-GAL4/pGAL4 transfection and luciferase assay in SW480 cells; assay type: cell-based
Description: as §1, §2

[3] = target: T2, PPARγ-coactivator interactions (Homo sapiens, UniProt P37231); assay: Mammalian two-hybrid assay (VP-PPARγ, GAL4-coactivator) in SW480 cells; assay type: cell-based
T2 construct: expressed in transfected cells; host or cells: SW480 cells, transient transfection (LipofectAMINE)
T2 sequence (P37231 238-503 limits assumed): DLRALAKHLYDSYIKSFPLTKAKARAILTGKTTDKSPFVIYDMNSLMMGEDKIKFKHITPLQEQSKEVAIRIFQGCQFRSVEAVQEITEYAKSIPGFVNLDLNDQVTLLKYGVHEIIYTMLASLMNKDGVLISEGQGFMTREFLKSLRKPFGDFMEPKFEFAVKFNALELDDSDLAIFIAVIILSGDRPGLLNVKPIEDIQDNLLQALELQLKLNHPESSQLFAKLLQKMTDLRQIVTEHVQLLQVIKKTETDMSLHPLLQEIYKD
Description: SW480 and HT29 cell lines were plated in 12-well plates at 1×10^5 cells/well in DMEM/F-12 media supplemented with 2.5% charcoal-stripped fetal bovine serum. After growth for 16 h, various amounts of DNA, i.e. Gal4Luc (0.4 μg), β-gal (0.04 μg), VP-PPARγ (0.04 μg), pMSRC1 (0.04 μg), pMSRC2 (0.04 μg), pMSRC3 (0.04 μg), pMPGC-1 (0.04 μg), pMDRIP205 (0.04 μg), and pMCARM-1 (0.04 μg) were transfected by LipofectAMINE (Invitrogen) according to the manufacturer's protocol. After 5 h of transfection, the transfection mix was replaced with complete media containing either vehicle (DMSO) or the indicated ligand for 20-22 h. Cells were then lysed with […] of 1× reporter lysis buffer, and 30 μl of cell extract was used for luciferase and β-galactosidase assays. Lumicount was used to quantitate luciferase and β-galactosidase activities, and the luciferase activities were normalized to β-galactosidase activity.

Structure (SMILES): COC(=O)[C@@]1(C)CC[C@]2(C)CC[C@]3(C)C(=CC(=O)[C@@H]4[C@@]5(C)C=C(C#N)C(=O)C(C)(C)[C@@H]5CC[C@]43C)[C@@H]2C1 [β-CDODA-Me, Methyl 2-cyano-3,11-dioxo-18β-oleana-1,12-dien-30-oate]
- NAG-1 and KLF4 proteins (HT-29 cells; HT-29, 24 hours): induction of NAG-1 and KLF4 proteins
- PARP cleavage (HT-29 cells; HT-29, 24 hours): induction of PARP cleavage
- NAG-1 protein levels (HT-29 cells; HT-29, 24 hours, higher (5 μM) concentration): decreased
- induction of NAG-1 and PARP cleavage after cotreatment with T007 (HT-29 cells; HT-29, 24 hr): not affected
- KLF-4 induction after cotreatment with T007 (HT-29 cells; HT-29, 24 hr, 10 μM T007): blocks this induction response
- caveolin-1 (HT-29 cells; HT-29, 3 days): induction of caveolin-1
- induction of caveolin-1 after cotreatment with T007 (HT-29 cells; HT-29, 96 hr, 10 μM T007): inhibited
- transactivation of PPRE3-Luc (PPARγ [1]): induced transactivation
- PPRE3-Luc transactivation after cotreatment with PPARγ antagonists T007 and GW9662 (PPARγ [1]; 10 μM antagonist): inhibited
- melting point: 243 to 245 °C
- induced luciferase activity after cotreatment with PPARγ antagonist T007 (PPARγ [2]; 1.0, 2.5, 5.0 β-CDODA-Me or 10, 20, 30 μM β-CDODA, 10 μM T007): inhibited
- maximal induction of luciferase activity (PPARγ activation) (PPARγ [2]; 1-5 μM): 18 Fold
- PPARγ interaction with coactivators PGC-1 and SRC-1 [3]: induced transactivation
- ligand-induced interactions of SRC-2, SRC-3, CARM1, TRAP220 and SMRT with PPARγ [3]: not observed
